Laboratory results from patent US9834559B2, “4-Amino-6-phenyl-5,6-dihydroimidazo[1,5-a]pyrazin-3(2H)-one derivatives as inhibitors of beta-secretase (BACE)” (Janssen Pharmaceutica NV, priority 2013, dated 2017).

Key:
[1] = target: recombinant BACE1 protein (Homo sapiens, UniProt P56817); assay: BACE1 biochemical FRET based assay; details: BACE1 0.04 μg/ml, 20 μM substrate, pH 5.0, 450 min; read-out: Biochemical FRET based assay pIC50 (converted)
Source text: (§1) This assay is a Fluorescence Resonance Energy Transfer Assay (FRET) based assay. The substrate for this assay is an APP derived 13 amino acids peptide that contains the ‘Swedish’ Lys-Met/Asn-Leu mutation of the amyloid precursor protein (APP) beta-secretase cleavage site. This substrate also contains two fluorophores: (7-methoxycoumarin-4-yl) acetic acid (Mca) is a fluorescent donor with excitation wavelength at 320 nm and emission at 405 nm and 2,4-Dinitrophenyl (Dnp) is a proprietary quencher acceptor. […] Upon cleavage by BACE1, the fluorophore Mca is separated from the quenching group Dnp, restoring the full fluorescence yield of the donor. The increase in fluorescence is linearly related to the rate of proteolysis.
Briefly in a 384-well format recombinant BACE1 protein in a final concentration of 0.04 μg/ml is incubated for 450 minutes at room temperature with 20 μM substrate in incubation buffer (50 mM Citrate buffer pH 5.0, 0.05% PEG) in the presence of compound or DMSO. Next the amount of proteolysis is directly measured by fluorescence measurement (excitation at 320 nm and emission at 405 nm) at different incubation times (0, 30, 60, 90, 120 and 450 min). For every experiment a time curve (every 30 min between 0 min and 120 min) is used to determine the time where we find the lowest basal signal of the high control. The signal at this time (Tx) is used to subtract from the signal at 450 min. Results are expressed in RFU, as difference between T450 and Tx.
(§2) A best-fit curve is fitted by a minimum sum of squares method to the plot of % Controlmin versus compound concentration. From this an IC50 value (inhibitory concentration causing 50% inhibition of activity) can be obtained. • LC=Median of the low control values • =Low control: Reaction without enzyme • HC=Median of the High control values • =High Control: Reaction with enzyme • % Effect=100−[(sample−LC)/(HC−LC)*100] • % Control=(sample/HC)*100 • % Controlmin=(sample−LC)/(HC−LC)*100

[2] = tested on: Abeta 1-42 produced and secreted by human neuroblastoma SKNBE2 cells expressing hAPP695; assay: Cellular αLisa assay in SKNBE2 cells, Abeta 1-42; assay type: cell-based; details: 18 hours incubation, read-out: Cellular αLisa assay in SKNBE2 cells Abeta 42 pIC50 (converted)
Method: (§3) In two αLisa assays the levels of Abeta total and Abeta 1-42 produced and secreted into the medium of human neuroblastoma SKNBE2 cells are quantified. The assay is based on the human neuroblastoma SKNBE2 expressing the wild type Amyloid Precursor Protein (hAPP695). The compounds are diluted and added to these cells, incubated for 18 hours and then measurements of Abeta 1-42 and Abeta total are taken. Abeta total and Abeta 1-42 are measured by sandwich αLisa. αLisa is a sandwich assay using biotinylated antibody AbN/25 attached to streptavidin coated beads and antibody Ab4G8 or cAb42/26 conjugated acceptor beads for the detection of Abeta total and Abeta 1-42 respectively. In the presence of Abeta total or Abeta 1-42, the beads come into close proximity. The excitation of the donor beads provokes the release of singlet oxygen molecules that trigger a cascade of energy transfer in the acceptor beads, resulting in light emission. Light emission is measured after 1 hour incubation (excitation at […] and emission at 615 nm).
as §2, with “cells preincubated” for “Reaction”, “compound, without biotinylated Ab in the αLisa” for “enzyme”, “cells preincubated without compound” for “Reaction with enzyme”

[3] = tested on: Abeta total produced and secreted by human neuroblastoma SKNBE2 cells expressing hAPP695; assay: Cellular αLisa assay in SKNBE2 cells, Abeta total; assay type: cell-based; details: 18 hours incubation, read-out: Cellular αLisa assay in SKNBE2 cells Abetatotal pIC50 (converted)
Method: as §3
as §2, with “cells preincubated” for “Reaction”, “compound, without biotinylated Ab in the αLisa” for “enzyme”, “cells preincubated without compound” for “Reaction with enzyme”

[4] = target: T1, recombinant BACE2 protein (Homo sapiens, UniProt Q9Y5Z0); assay: BACE2 biochemical FRET based assay; details: BACE2 0.4 μg/ml, 10 μM substrate, pH 5.0, 450 min; read-out: BACE2 Biochemical FRET based assay pIC50 (converted)
T1 sequence (Q9Y5Z0 63-518): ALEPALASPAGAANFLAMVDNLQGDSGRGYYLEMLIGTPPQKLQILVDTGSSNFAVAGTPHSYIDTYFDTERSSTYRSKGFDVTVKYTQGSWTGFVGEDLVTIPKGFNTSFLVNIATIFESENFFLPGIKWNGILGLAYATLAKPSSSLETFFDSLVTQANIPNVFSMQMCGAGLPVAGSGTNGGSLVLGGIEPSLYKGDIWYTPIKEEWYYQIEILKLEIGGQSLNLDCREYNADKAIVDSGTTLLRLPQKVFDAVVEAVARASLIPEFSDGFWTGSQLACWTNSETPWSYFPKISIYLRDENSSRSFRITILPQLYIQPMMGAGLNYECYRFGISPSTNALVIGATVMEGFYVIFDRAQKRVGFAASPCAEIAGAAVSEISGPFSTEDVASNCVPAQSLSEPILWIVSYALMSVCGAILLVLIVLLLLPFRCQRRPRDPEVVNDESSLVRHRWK
Source text: as §1, with “assay” for “assay is an APP derived 13 amino acids peptide that”, “the beta-secretase,” for “BACE1,”
Briefly in a 384-well format recombinant BACE2 protein in a final concentration of 0.4 μg/ml is incubated for 450 minutes at room temperature with 10 μM substrate in incubation buffer (50 mM Citrate buffer pH 5.0, 0.05% PEG, no DMSO) in the absence or presence of compound. Next the amount of proteolysis is directly measured by fluorescence measurement at T=0 and T=450 (excitation at 320 nm and emission at 405 nm). Results are expressed in RFU (Relative Fluorescence Units), as difference between T450 and T0.
as §2

Sequence of recombinant BACE1 protein (P56817 46-501): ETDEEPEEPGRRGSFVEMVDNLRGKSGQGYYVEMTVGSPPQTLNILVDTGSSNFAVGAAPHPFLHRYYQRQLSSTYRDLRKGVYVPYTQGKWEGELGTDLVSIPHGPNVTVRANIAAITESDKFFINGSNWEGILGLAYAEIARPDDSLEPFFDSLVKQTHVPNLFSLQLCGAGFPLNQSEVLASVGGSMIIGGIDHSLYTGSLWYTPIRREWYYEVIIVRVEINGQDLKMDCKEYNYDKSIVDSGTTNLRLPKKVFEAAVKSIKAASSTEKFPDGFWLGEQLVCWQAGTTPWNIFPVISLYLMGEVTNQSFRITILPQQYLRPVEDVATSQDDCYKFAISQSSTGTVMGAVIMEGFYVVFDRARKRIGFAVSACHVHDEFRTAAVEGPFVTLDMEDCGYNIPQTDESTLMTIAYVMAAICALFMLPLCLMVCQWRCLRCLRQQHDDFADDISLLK

Row | IC50 [1] [nM] | IC50 [2] [nM] | IC50 [3] [nM] | IC50 [4] [nM] | SMILES
1 | 2.95 | 13.2 | 11.5 | 19.5 | Cn1cc2n(c1=O)C[C@@](C)(c1cc(NC(=O)c3ccc(C#N)cn3)ccc1F)N=C2N [Compound 1, N-{3-[(6R)-8-Amino-2,6-dimethyl-3-oxo-2,3,5,6-tetrahydroimidazo[1,5-a]pyrazin-6-yl]-4-fluorophenyl}-5-cyanopyridine-2-carboxamide]
2 | 9.55 | 57.5 | 52.5 | 6.61 | Cc1nc(C(=O)Nc2ccc(F)c([C@]3(C)Cn4c(cn(C)c4=O)C(N)=N3)c2)co1 [Compound 3, N-{3-[(6R)-8-Amino-2,6-dimethyl-3-oxo-2,3,5,6-tetrahydroimidazo[1,5-a]pyrazin-6-yl]-4-fluorophenyl}-2-methyl-1,3-oxazole-4-carboxamide]
3 | 3.98 | 6.31 | 6.03 | 4.37 | Cn1cc2n(c1=O)C[C@@](C)(c1cc(NC(=O)c3ccc(Cl)cn3)ccc1F)N=C2N [Compound 4, N-{3-[(6R)-8-amino-2,6-dimethyl-3-oxo-5H-imidazo[1,5-a]pyrazin-6-yl]-4-fluoro-phenyl}-5-chloro-pyridine-2-carboxamide]
